Assay results: patent US12679822B2, “Alkenyl pyrimidine compound, preparation method therefor, and application thereof” (Hongyun Biotech Co., Ltd., priority 2020, dated 2026)

Legend:
Format in all cases: cell-based
[1] = target: BaF3 cell lines stably transfected with kinase EGFR L858R (Homo sapiens, UniProt P00533, L858R, cells depend on it); experiment: Growth inhibition of BaF3 cell line stably transfected with kinase EGFR L858R (MTS); conditions: 48 h, read-out: growth inhibitory activity IC50, L858R
Method: (§1) Biological Activity Assay: Growth Inhibitory Activity of Compounds on Cell Lines Stably Transfected with Kinase
(§2) The activity of compounds against various mutants of kinase EGFR was evaluated by their effect of inhibiting growth of BaF3 cell lines stably transfected with kinase. The specific test method was given as follows:
(§3) 1) Culture medium: DMEM (Dulbecco's modified eagle medium) or RPMI 1640 (containing 10% fetal bovine serum, 100 μg/mL ampicillin, 100 μg/mL streptomycin).
(§4) 2) Reagent: MTS reaction solution (containing 2 mg/mL of MTS [3-(4,5-di methylthiazol-2-yl)-5-(3-carboxymethoxyphenyl)-2-(4-sulfophenyl)-2H-tetrazolium, inner Salt]; 100 μg/mL of PES (phenazine […])).
(§5) 3) Compound test: cells were incubated into a 96-well culture plate, the volume of cytosol was 90 μL, and then 10 μL of the compound at each gradient concentration was added. That is, the highest concentration was 10 μM, which was diluted stepwise by ⅓, and 8 concentration points were set in total; 0.1% DMSO (dimethyl sulfoxide) was contained in the system. The cell plate with uniformly mixed compound was cultured in a cell culture incubator (37° C.; 5% […]) for 48 h, then 20 μL of MTS reaction solution was added, uniformly mixed and incubated in the cell culture incubator (37° C.; 5% CO2) for 1-4 h; OD values at 490 nm were measured by a microplate reader (VARIOSKAN FLASH, Thermo). Two parallels were set in each group of experiments, with 0.1% (a final concentration) DMSO as a negative control, and a culture medium without cells and compounds as a blank control. The cell growth inhibition rate was calculated by the following formula: Cell growth inhibition rate %=1−(ODexperimental group−ODblank group)/(ODnegative group−ODblank group)×100%.
(§6) 4) IC50 calculation: The semi-inhibitory concentration of the compounds acting on cells was calculated using GradPad Prism 5 software according to the measured cell growth inhibition rate.

[2] = target: BaF3 cell lines stably transfected with kinase EGFR Del/T790M/C797S (Homo sapiens, UniProt P00533, T790M/C797S, cells depend on it, form not given); experiment: Growth inhibition of BaF3 cell line stably transfected with kinase EGFR Del/T790M/C797S (MTS); conditions: 48 h, read-out: growth inhibitory activity IC50, Del/T790M/C797S
Method: as §1, §2, §3, §4, §5, §6

[3] = target: BaF3 cell lines stably transfected with kinase EGFR L858R/T790M/C797S (Homo sapiens, UniProt P00533, T790M/C797S/L858R, cells depend on it); experiment: Growth inhibition of BaF3 cell line stably transfected with kinase EGFR L858R/T790M/C797S (MTS); conditions: 48 h, read-out: growth inhibitory activity IC50, L858R/T790M/C797S
Method: as §1, §2, §3, §4, §5, §6

[4] = target: BaF3 cell lines stably transfected with kinase EGFR L858R/T790M (Homo sapiens, UniProt P00533, T790M/L858R, cells depend on it); experiment: Growth inhibition of BaF3 cell line stably transfected with kinase EGFR L858R/T790M (MTS); conditions: 48 h, read-out: growth inhibitory activity IC50, L858R/T790M
Method: as §1, §2, §3, §4, §5, §6

[5] = target: BaF3 cell lines stably transfected with kinase EGFR Del (Homo sapiens, UniProt P00533, cells depend on it, form not given); experiment: Growth inhibition of BaF3 cell line stably transfected with kinase EGFR Del (MTS); conditions: 48 h, read-out: growth inhibitory activity IC50, Del
Method: as §1, §2, §3, §4, §5, §6

[6] = target: BaF3 cell lines stably transfected with kinase EGFR Del/T790M (Homo sapiens, UniProt P00533, T790M, cells depend on it, form not given); experiment: Growth inhibition of BaF3 cell line stably transfected with kinase EGFR Del/T790M (MTS); conditions: 48 h, read-out: growth inhibitory activity IC50, Del/T790M
Method: as §1, §2, §3, §4, §5, §6

Chain of BaF3 cell lines stably transfected with kinase EGFR Del/T790M (P00533 with tags, fused parts or gaps DEL746-750/T790M, form open): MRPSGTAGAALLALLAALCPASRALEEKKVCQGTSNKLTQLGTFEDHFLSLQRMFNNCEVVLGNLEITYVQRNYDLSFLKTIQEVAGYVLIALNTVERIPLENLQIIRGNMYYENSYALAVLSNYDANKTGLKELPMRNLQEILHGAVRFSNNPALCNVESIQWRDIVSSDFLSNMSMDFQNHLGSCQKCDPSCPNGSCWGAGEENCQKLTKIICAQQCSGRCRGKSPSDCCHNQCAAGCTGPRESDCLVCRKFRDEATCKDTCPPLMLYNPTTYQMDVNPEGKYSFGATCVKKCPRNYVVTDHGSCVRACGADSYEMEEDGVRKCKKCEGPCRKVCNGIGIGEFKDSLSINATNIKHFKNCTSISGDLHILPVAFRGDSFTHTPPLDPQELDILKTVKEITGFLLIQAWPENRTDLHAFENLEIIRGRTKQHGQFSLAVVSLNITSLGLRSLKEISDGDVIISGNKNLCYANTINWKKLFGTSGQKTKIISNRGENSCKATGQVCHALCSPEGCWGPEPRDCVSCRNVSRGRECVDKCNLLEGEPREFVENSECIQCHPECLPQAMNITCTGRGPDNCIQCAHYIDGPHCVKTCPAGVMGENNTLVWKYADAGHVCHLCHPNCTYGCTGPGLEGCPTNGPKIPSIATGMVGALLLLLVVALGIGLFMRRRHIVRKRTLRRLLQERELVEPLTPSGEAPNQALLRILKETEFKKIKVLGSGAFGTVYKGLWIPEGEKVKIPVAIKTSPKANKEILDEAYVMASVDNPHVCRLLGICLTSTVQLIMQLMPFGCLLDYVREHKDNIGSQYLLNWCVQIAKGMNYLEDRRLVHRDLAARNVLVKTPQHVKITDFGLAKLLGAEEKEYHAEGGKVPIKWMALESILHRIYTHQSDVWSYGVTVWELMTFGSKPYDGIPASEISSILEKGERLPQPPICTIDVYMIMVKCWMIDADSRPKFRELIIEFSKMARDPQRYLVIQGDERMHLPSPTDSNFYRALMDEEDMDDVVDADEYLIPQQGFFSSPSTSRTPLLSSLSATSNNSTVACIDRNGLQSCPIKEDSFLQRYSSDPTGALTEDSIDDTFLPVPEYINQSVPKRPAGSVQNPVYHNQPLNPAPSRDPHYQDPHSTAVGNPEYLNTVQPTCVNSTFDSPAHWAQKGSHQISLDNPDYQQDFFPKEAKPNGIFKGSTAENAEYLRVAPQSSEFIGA
Chain of BaF3 cell lines stably transfected with kinase EGFR Del (P00533 with tags, fused parts or gaps DEL746-750): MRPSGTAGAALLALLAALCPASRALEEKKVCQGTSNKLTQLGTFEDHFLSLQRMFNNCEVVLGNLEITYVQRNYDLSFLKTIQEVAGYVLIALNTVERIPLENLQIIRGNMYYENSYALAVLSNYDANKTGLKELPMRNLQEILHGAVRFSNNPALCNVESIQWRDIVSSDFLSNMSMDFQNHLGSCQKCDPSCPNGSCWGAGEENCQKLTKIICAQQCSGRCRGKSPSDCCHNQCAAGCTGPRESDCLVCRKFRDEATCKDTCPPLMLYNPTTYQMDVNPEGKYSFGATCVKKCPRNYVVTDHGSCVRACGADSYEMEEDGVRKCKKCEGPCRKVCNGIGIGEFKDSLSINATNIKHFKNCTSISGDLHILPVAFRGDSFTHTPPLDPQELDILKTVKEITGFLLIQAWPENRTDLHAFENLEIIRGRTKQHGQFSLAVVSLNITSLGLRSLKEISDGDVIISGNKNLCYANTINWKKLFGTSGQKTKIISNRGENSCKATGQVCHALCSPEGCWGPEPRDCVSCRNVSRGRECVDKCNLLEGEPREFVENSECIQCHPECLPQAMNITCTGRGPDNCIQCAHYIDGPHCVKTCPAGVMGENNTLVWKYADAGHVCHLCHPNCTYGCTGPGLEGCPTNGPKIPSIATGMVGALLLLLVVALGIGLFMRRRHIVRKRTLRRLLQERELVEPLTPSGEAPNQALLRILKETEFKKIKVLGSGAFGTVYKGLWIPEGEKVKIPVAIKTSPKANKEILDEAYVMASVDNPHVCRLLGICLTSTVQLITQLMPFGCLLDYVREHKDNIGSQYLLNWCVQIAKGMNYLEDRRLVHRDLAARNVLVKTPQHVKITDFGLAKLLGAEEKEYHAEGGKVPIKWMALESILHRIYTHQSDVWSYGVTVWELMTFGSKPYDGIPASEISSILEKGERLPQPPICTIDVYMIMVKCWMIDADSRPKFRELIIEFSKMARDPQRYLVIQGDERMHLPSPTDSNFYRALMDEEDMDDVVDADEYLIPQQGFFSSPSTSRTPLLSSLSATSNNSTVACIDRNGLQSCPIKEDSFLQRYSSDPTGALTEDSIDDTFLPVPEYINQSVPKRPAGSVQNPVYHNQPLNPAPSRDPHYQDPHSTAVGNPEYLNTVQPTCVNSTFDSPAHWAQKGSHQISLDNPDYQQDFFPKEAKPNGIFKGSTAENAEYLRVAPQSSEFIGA
Chain of BaF3 cell lines stably transfected with kinase EGFR L858R/T790M/C797S (P00533 whole entry T790M/C797S/L858R): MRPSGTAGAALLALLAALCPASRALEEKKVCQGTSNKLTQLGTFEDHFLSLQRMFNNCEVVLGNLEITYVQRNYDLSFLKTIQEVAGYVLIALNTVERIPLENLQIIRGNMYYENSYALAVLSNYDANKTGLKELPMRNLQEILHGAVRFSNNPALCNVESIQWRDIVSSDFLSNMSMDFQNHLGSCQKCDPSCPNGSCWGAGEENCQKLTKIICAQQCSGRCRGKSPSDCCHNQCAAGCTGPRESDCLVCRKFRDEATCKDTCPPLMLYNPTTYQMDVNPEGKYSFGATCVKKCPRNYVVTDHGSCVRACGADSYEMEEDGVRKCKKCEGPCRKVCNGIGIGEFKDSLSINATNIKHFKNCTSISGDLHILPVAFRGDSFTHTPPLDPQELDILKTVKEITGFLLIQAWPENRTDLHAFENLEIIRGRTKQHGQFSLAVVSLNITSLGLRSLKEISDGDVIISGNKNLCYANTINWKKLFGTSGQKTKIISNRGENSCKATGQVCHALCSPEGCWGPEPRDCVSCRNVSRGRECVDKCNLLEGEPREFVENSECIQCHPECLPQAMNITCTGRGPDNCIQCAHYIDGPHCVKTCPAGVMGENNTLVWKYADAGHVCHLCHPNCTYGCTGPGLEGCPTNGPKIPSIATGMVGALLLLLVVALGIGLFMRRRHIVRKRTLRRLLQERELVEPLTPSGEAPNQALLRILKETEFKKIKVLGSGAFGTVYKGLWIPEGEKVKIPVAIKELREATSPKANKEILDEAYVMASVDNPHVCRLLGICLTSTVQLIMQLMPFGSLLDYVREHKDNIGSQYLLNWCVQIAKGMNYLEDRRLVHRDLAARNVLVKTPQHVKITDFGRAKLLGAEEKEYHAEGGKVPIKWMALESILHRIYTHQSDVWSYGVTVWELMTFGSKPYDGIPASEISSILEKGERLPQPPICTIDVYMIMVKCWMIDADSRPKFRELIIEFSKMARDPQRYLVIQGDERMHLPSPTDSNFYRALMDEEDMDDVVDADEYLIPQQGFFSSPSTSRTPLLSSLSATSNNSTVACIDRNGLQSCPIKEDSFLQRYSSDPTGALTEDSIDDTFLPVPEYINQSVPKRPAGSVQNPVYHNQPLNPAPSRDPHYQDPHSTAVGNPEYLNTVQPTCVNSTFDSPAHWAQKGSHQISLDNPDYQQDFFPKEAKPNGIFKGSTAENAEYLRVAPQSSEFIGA
Chain of BaF3 cell lines stably transfected with kinase EGFR L858R/T790M (P00533 whole entry T790M/L858R): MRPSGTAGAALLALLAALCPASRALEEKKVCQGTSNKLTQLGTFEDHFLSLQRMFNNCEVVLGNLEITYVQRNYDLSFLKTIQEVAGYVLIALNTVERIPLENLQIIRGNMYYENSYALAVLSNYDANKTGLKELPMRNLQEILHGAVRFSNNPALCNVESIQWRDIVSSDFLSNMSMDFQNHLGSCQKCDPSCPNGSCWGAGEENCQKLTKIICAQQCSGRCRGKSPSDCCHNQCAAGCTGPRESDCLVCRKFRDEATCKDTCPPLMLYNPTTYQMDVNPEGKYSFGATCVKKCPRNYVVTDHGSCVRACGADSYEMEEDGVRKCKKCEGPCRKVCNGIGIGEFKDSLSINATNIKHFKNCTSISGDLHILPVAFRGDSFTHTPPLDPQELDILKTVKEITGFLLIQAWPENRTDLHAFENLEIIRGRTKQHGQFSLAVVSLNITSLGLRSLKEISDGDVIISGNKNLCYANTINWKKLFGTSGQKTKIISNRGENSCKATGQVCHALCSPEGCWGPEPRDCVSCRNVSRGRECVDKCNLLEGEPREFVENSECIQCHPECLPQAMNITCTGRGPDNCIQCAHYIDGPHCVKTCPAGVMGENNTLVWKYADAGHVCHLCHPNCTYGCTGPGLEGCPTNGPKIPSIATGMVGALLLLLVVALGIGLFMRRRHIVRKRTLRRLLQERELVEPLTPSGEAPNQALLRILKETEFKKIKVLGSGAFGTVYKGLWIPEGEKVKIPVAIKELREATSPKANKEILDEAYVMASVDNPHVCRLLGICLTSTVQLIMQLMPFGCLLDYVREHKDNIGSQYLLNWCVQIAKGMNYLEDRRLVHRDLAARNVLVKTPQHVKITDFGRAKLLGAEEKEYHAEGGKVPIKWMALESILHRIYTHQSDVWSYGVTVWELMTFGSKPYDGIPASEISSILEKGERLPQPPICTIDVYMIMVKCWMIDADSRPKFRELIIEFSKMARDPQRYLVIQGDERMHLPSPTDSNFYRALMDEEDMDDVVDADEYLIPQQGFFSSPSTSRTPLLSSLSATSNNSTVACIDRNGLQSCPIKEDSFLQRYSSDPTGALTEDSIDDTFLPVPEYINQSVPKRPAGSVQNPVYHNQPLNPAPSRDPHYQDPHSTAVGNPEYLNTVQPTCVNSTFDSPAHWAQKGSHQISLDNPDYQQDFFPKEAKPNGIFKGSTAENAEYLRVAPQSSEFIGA

Row | GI50 [1] [nM] | GI50 [2] [nM] | GI50 [3] [nM] | GI50 [4] [nM] | GI50 [5] [nM] | GI50 [6] [nM] | SMILES
1 | 50 to 500 | 500 to 2500 | 500 to 2500 | 500 to 2500 | ≤ 50 | 500 to 2500 | CCc1cc(Nc2ncc(/C=C/C3CC3)c(Nc3ccc4nccnc4c3N(C)S(C)(=O)=O)n2)c(OC)cc1N1CCC(N2CCN(C)CC2)CC1 [II-28]
2 | 50 to 500 | 500 to 2500 | 500 to 2500 | 500 to 2500 | 50 to 500 | 500 to 2500 | CCc1cc(Nc2ncc(/C=C/c3ccccc3)c(Nc3ccc4nccnc4c3N(C)S(C)(=O)=O)n2)c(OC)cc1N1CCC(N2CCN(C)CC2)CC1 [II-29]
3 | ≤ 50 | 50 to 500 | ≤ 50 | 50 to 500 | ≤ 50 | ≤ 50 | C=Cc1cnc(Nc2cc(C)c(N3CCC(N4CCN(C)CC4)CC3)cc2OC)nc1Nc1ccc2nccnc2c1NS(C)(=O)=O [II-31]
4 | ≤ 50 | 50 to 500 | 50 to 500 | 50 to 500 | ≤ 50 | ≤ 50 | C=Cc1cnc(Nc2cc(CC)c(N3CCC(N4CCN(C)CC4)CC3)cc2OC)nc1Nc1ccc2nccnc2c1NS(C)(=O)=O [II-32]
5 | ≤ 50 | 50 to 500 | 50 to 500 | 50 to 500 | ≤ 50 | 50 to 500 | C=Cc1cnc(Nc2cc(CC)c(N3CCC(N4CCN(C)CC4)CC3)nc2OC)nc1Nc1ccc2nccnc2c1NS(C)(=O)=O [II-33]
6 | 50 to 500 | 50 to 500 | 50 to 500 | 50 to 500 | 50 to 500 | 50 to 500 | C=Cc1cnc(Nc2cc(CC)c(N3CCC(N4CCN(C)CC4)CC3)cc2OC(F)(F)F)nc1Nc1ccc2nccnc2c1NS(C)(=O)=O [II-34]
7 | 50 to 500 | 500 to 2500 | 50 to 500 | 500 to 2500 | 50 to 500 | 50 to 500 | C=Cc1cnc(Nc2cc(C(C)C)c(N3CCC(N4CCN(C)CC4)CC3)cc2OC)nc1Nc1ccc2nccnc2c1NS(C)(=O)=O [II-35]
8 | ≤ 50 | 50 to 500 | ≤ 50 | 50 to 500 | ≤ 50 | ≤ 50 | C=Cc1cnc(Nc2cc(C3CC3)c(N3CCC(N4CCN(C)CC4)CC3)cc2OC)nc1Nc1ccc2nccnc2c1NS(C)(=O)=O [II-36]
9 | ≤ 50 | 50 to 500 | ≤ 50 | 50 to 500 | ≤ 50 | ≤ 50 | C=Cc1cnc(Nc2cc(CC3CC3)c(N3CCC(N4CCN(C)CC4)CC3)cc2OC)nc1Nc1ccc2nccnc2c1NS(C)(=O)=O [II-37]

Continued, molecule first:

Row | SMILES | GI50 [1] [nM] | GI50 [2] [nM] | GI50 [3] [nM] | GI50 [4] [nM] | GI50 [5] [nM] | GI50 [6] [nM]
10 | C=Cc1cnc(Nc2cc(CC3CC3)c(N3CCC(N4CCN(C)CC4)CC3)cc2OC)nc1Nc1ccc2nccnc2c1N(C)S(C)(=O)=O [II-7] | ≤ 50 | ≤ 50 | ≤ 50 | ≤ 50 | ≤ 50 | ≤ 50
11 | C=Cc1cnc(Nc2cc(CC)c(N3CCC(N4CCN(C)CC4)CC3)cc2OC)nc1Nc1ccc2nccnc2c1N(C)S(=O)(=O)C(F)(F)F [II-8] | 50 to 500 | 50 to 500 | 50 to 500 | 50 to 500 | 50 to 500 | 50 to 500
12 | C=Cc1cnc(Nc2cc(CC)c(N3CCC(N4CCN(C)CC4)CC3)cc2OC)nc1Nc1ccc2nccnc2c1N(C)S(=O)(=O)CC [II-9] | 50 to 500 | 50 to 500 | ≤ 50 | 50 to 500 | 50 to 500 | ≤ 50
13 | C=Cc1cnc(Nc2cc(CC)c(N3CCC(N4CCN(C)CC4)CC3)cc2OC)nc1Nc1ccc2nccnc2c1N(C)S(=O)(=O)C1CC1 [II-11] | 50 to 500 | 50 to 500 | 50 to 500 | 50 to 500 | ≤ 50 | ≤ 50
14 | C=Cc1cnc(Nc2cc(CC)c(N3CCC(N4CCN(C)CC4)CC3)cc2OC)nc1Nc1ccc2nccnc2c1N(CC)S(C)(=O)=O [II-12] | ≤ 50 | ≤ 50 | ≤ 50 | ≤ 50 | ≤ 50 | ≤ 50
15 | C=Cc1cnc(Nc2cc(CC)c(N3CCC(N4CCN(C)CC4)CC3)cc2OC)nc1Nc1ccc2nccnc2c1N(C1CC1)S(C)(=O)=O [II-14] | ≤ 50 | 50 to 500 | ≤ 50 | ≤ 50 | ≤ 50 | ≤ 50
16 | C=Cc1cnc(Nc2cc(C)c(N3CCC(N4CCN(C)CC4)CC3)cc2OC)nc1Nc1ccc2nccnc2c1N(C)S(C)(=O)=O [II-15] | ≤ 50 | ≤ 50 | ≤ 50 | ≤ 50 | ≤ 50 | ≤ 50
17 | C=Cc1cnc(Nc2ccc(N3CCC(N4CCN(C)CC4)CC3)cc2OC)nc1Nc1ccc2nccnc2c1N(C)S(C)(=O)=O [II-16] | 500 to 2500 | 50 to 500 | 50 to 500 | 500 to 2500 | 50 to 500 | 50 to 500
18 | C=Cc1cnc(Nc2cc(C(C)C)c(N3CCC(N4CCN(C)CC4)CC3)cc2OC)nc1Nc1ccc2nccnc2c1N(C)S(C)(=O)=O [II-17] | 500 to 2500 | 50 to 500 | 50 to 500 | 50 to 500 | 50 to 500 | 50 to 500
19 | C=Cc1cnc(Nc2cc(C3CC3)c(N3CCC(N4CCN(C)CC4)CC3)cc2OC)nc1Nc1ccc2nccnc2c1N(C)S(C)(=O)=O [II-18] | 50 to 500 | 50 to 500 | 50 to 500 | 50 to 500 | 50 to 500 | ≤ 50
20 | C=Cc1cnc(Nc2cc(Cc3ccccc3)c(N3CCC(N4CCN(C)CC4)CC3)cc2OC)nc1Nc1ccc2nccnc2c1N(C)S(C)(=O)=O [II-19] | 500 to 2500 | ≤ 50 | 50 to 500 | 500 to 2500 | 500 to 2500 | 50 to 500
21 | C=Cc1cnc(Nc2ccc(N3CCC(N4CCN(C)CC4)CC3)c(CC)c2)nc1Nc1ccc2nccnc2c1N(C)S(C)(=O)=O [II-20] | ≤ 50 | ≤ 50 | ≤ 50 | ≤ 50 | ≤ 50 | ≤ 50
22 | C=C(C)c1cnc(Nc2cc(CC)c(N3CCC(N4CCN(C)CC4)CC3)cc2OC)nc1Nc1ccc2nccnc2c1N(C)S(C)(=O)=O [II-21] | ≤ 50 | ≤ 50 | ≤ 50 | ≤ 50 | ≤ 50 | ≤ 50
23 | C=C(C)c1cnc(Nc2cc(C(C)C)c(N3CCC(N4CCN(C)CC4)CC3)cc2OC)nc1Nc1ccc2nccnc2c1N(C)S(C)(=O)=O [II-22] | 50 to 500 | 50 to 500 | 500 to 2500 | 50 to 500 | 50 to 500 | 50 to 500
24 | C=C(C)c1cnc(Nc2cc(C3CC3)c(N3CCC(N4CCN(C)CC4)CC3)cc2OC)nc1Nc1ccc2nccnc2c1N(C)S(C)(=O)=O [II-23] | ≤ 50 | 50 to 500 | 50 to 500 | ≤ 50 | ≤ 50 | ≤ 50
25 | C=C(C)c1cnc(Nc2ccc(N3CCC(N4CCN(C)CC4)CC3)c(CC)c2)nc1Nc1ccc2nccnc2c1N(C)S(C)(=O)=O [II-24] | ≤ 50 | 50 to 500 | 50 to 500 | ≤ 50 | ≤ 50 | ≤ 50
26 | CCc1cc(Nc2ncc(C=C(C)C)c(Nc3ccc4nccnc4c3N(C)S(C)(=O)=O)n2)c(OC)cc1N1CCC(N2CCN(C)CC2)CC1 [II-26] | 50 to 500 | 500 to 2500 | 500 to 2500 | 500 to 2500 | ≤ 50 | 500 to 2500
27 | CCc1cc(Nc2ncc(C3=CCCC3)c(Nc3ccc4nccnc4c3N(C)S(C)(=O)=O)n2)c(OC)cc1N1CCC(N2CCN(C)CC2)CC1 [II-27] | 50 to 500 | 500 to 2500 | 500 to 2500 | 500 to 2500 | ≤ 50 | 500 to 2500
